Values belong to the compound of their own block, whether it stands above or below them.
Tests used:
DNA-PK (h) = molecular target: T1, DNA-PK (h) (Homo sapiens, UniProt P78527); assay: DNA-PK kinase inhibitory activity (HTRF, Eurofins); type: biochemical; settings: ATP: 10 μM
T1 construct: Eurofins Pharma Discovery Service (contract assay)
Procedure: (§1) This experiment was tested at Eurofins Pharma Discovery Service, Reaction Biology Corp. (RBC)
(§2) […] DNA-PK: Mg/ATP; GST-cMyc-p53; EDTA; Ser15 antibody; ATP: 10 μM; biotinylated phosphatidylinositol-3,4,5-triphosphate; GST label GRP1 PH domain; streptavidin and phycocyanin; europium-labelled monoclonal antibody against GST.
DNA-PK (h) was incubated in a determination buffer containing 50 nM GST-cMyc-p53 and Mg/ATP (density as required). The reaction was initiated by adding a mixture of Mg/ATP. After incubating at room temperature for 30 min, a termination solution containing EDTA was added to terminate the reaction. Finally, a detection buffer (containing labeled anti-GST monoclonal antibody and europium-labeled anti-phosphate Ser15 antibody against phosphorylated p53) was added. Then, the board was read in time-resolved fluorescence mode, and a Homogeneous Time Resolved Fluorescence (HTRF) signal was measured according to the formula HTRF=10000×(Em665 nm/Em620 nm).

PI3K (p110α/p85α) = molecular target: T2, PI3K (p110α/p85α) (Homo sapiens, UniProt P42336); assay: PI3K (p110α/p85α) kinase inhibitory activity (HTRF); type: biochemical
T2 construct: Eurofins Pharma Discovery Service (contract assay)
Procedure: as §1, §2
PI3K (p110α/p85α) was incubated in a determination buffer containing phosphatidylinositol 4,5-diphosphate and Mg/ATP (density as required). The reaction was initiated by adding an ATP solution. After incubating at room temperature for 30 min, a termination solution containing EDTA and biotinylated phosphatidylinositol-3,4,5-triphosphate was added to terminate the reaction. Finally, a detection buffer (containing labeled anti-GST monoclonal antibody, PH domain of GRP1 with GST label and streptavidin and phycyanin and […]) was added. Then, the board was read in time-resolved fluorescence mode, and an HTRF signal was measured according to the formula HTRF=10000×(Em665 nm/Em620 nm).

PI3K (p110σ/p85α) = molecular target: T3, PI3K (p110σ/p85α) (Homo sapiens, UniProt O00329); assay: PI3K (p110σ/p85α) kinase inhibitory activity (HTRF); type: biochemical
T3 construct: Eurofins Pharma Discovery Service (contract assay)

[1] = Pharmacokinetic evaluation in mice, IV and PO; type: in vivo, Balb/c female mice; settings: for Tlast / AUC(0-t) / C0 / clearance / half-life / Vd / Cmax / Tmax: mouse plasma; for bioavailability / AUC(0-t) / C0 / clearance / half-life / Vd / Cmax / Tmax: female, Balb/c; for bioavailability: plasma, mouse; for Vd: read-out: Vdss; for Tmax: read-out: Tmax
Procedure: The tested compound was mixed with 10% DMSO/50% PEG400/40% water, vortexized and ultrasonic to prepare 0.2 mg/mL or 0.4 mg/ml, approximately clarified solution, which was filtered by a microporous membrane and then standby. Balb/c female mice of 18-20 g were selected and given the candidate compound solution intravenously at a dose of 1 or 2 mg/kg. The tested compound was mixed with 10% DMSO/50% PEG400/40% water, vortexized and ultrasonic to prepare 0.2 mg/mL or 1 mg/mL approximately clarified solution, which was filtered by a microporous membrane and then standby. Balb/c female mice of 18 to 20 g were selected and given orally the candidate compound solution at a dose of 2 or 10 mg/kg. Whole blood was collected for a certain period of time, and plasma was prepared. Drug concentration was analyzed by LC-MS/MS method, and pharmacokinetic parameters were calculated by Phoenix WinNonlin software (US Pharsight company).
C0: instantaneous concentration required after intravenous injection; Cmax: the highest blood concentration after administration; Tmax: time required to reach peak concentration after administration; T1/2: the time required for blood drug concentration to decrease by half; Vdss: apparent volume of distribution, which refers to the ratio constant of drug dosage to blood concentration when a drug reaches dynamic equilibrium in vivo. Cl: clearance rate, referring to drug apparent distribution volume number removed from the body per unit time; Tlast: time of last detection point: AUC0-last: an area under a drug duration curve, referring to an area surrounded by the blood drug concentration curve on the time axis; Bioavailability: a measure of the rate and extent of drug absorption into the blood circulation, which was an important index to evaluate drug absorption degree.

[2] = test system: human small cell lung cancer NCI-H69 xenograft tumor model; assay: NCI-H69 xenograft, mono and combination with etoposide, 24-day experiment (Table 8); type: in vivo, BALB/c nude mice; settings: etoposide 10 mg/kg alone
Procedure: Experiment example 3: in vivo pharmacodynamics of human small cell lung cancer NCI-H69 cell subcutaneous xenograft tumor BALB/c nude mouse model:
Experimental animals: Female BALB/c nude mice, 6-8 weeks old, weighing 15-22 grams; supplier: Shanghai Linchang Biotechnology Co., LTD. (Linchang, Shanghai)
Human small cell lung cancer NCI-H69 cells (ATCC, item number: HTB-119 and ECACC-95111733) were cultured in vitro in a culture condition of RPMI-1640 medium with 10% fetal bovine serum, 100 U/mL penicillin and 100 μg/mL streptomycin, incubated at 37° C. and 5% CO2. Conventional passage was carried out twice a week. When cell saturation was 80%-90% and the number reaches the requirement, cells were collected, counted and inoculated.
0.2 mL (10×10^6) NCI-H69 cells (with matrix glue, and volume ratio of 1:1) were subcutaneously inoculated into a right back of each mouse, and group administration was initiated when the average tumor volume reaches about 110-120 mm^3.
The tested compound was prepared as a 5 mg/mL clarified solution with 10% DMSO+50% polyethylene glycol 400+40% water as the solvent.
The experimental indicators refers to study whether tumor growth was inhibited, delayed, or cured. Tumor diameter was measured twice a week with a vernier caliper. The calculation formula of the tumor volume was V=0.5a×b^2, and a and b represent the long diameter and short diameter of the tumor, respectively.
The antitumor efficacy of the compound was evaluated by TGI (%) or relative tumor proliferation rate T/C (%). TGI (%) reflects the tumor growth inhibition rate. The calculation of TGI (%): TGI (%)=[1−(average tumor volume at the end of administration of a certain treatment group−average tumor volume at the beginning of administration of the treatment group)/(average tumor volume at the end of treatment in solvent control group−average tumor volume at the beginning of treatment in solvent control group)]×control group.
Relative tumor proliferation rate T/C (%): the calculation formula was as follows: T/C %=[…] TRTV/CRTV group (TRTV: treatment group RTV; CRTV: negative control group RTV). According to results of tumor measurement, Relative Tumor Volume (RTV) was calculated by the formula RTV=Vt/V0, where V0 was the average tumor volume measured in group administration (i.e., d0), and Vt was the average tumor volume measured in a certain single measurement. TRTV and CRTV collect data on the same day.
Statistic analysis includes an average value and a standard error (SEM) of tumor volume at each time point for each group. […] If there was no significant difference in F value, Dunnet (2-sided) method was applied to analysis. All data were analyzed using SPSS 17.0. P<0.05 was considered as having a significant difference.

T3 sequence (O00329 whole entry): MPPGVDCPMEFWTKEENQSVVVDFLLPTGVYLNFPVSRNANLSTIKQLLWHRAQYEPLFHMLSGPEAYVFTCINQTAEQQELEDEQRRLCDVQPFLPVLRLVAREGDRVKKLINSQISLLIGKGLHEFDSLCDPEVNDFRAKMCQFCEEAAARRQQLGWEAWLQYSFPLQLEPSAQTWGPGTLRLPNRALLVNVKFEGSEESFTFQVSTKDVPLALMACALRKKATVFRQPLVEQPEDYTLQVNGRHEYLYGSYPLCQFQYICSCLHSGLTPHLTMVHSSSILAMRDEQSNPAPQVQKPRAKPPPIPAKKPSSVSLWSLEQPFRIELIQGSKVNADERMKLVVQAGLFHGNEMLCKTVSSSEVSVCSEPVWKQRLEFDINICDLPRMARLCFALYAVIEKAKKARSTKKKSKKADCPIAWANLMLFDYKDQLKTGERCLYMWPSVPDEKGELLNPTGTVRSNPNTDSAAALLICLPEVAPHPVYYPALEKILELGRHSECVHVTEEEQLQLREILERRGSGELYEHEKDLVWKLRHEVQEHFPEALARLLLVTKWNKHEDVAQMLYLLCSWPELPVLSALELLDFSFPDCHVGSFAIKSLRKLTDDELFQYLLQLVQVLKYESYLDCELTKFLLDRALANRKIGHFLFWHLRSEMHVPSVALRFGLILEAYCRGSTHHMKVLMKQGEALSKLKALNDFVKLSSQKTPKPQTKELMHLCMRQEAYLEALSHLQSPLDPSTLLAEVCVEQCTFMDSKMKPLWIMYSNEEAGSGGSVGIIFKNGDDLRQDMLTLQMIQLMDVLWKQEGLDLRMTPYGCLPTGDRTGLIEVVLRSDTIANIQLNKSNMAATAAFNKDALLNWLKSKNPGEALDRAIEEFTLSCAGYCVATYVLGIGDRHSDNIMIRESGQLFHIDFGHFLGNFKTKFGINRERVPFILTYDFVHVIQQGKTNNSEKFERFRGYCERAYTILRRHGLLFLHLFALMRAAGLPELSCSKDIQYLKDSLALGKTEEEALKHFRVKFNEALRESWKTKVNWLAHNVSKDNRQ
T3 sequence (P27986 whole entry partner): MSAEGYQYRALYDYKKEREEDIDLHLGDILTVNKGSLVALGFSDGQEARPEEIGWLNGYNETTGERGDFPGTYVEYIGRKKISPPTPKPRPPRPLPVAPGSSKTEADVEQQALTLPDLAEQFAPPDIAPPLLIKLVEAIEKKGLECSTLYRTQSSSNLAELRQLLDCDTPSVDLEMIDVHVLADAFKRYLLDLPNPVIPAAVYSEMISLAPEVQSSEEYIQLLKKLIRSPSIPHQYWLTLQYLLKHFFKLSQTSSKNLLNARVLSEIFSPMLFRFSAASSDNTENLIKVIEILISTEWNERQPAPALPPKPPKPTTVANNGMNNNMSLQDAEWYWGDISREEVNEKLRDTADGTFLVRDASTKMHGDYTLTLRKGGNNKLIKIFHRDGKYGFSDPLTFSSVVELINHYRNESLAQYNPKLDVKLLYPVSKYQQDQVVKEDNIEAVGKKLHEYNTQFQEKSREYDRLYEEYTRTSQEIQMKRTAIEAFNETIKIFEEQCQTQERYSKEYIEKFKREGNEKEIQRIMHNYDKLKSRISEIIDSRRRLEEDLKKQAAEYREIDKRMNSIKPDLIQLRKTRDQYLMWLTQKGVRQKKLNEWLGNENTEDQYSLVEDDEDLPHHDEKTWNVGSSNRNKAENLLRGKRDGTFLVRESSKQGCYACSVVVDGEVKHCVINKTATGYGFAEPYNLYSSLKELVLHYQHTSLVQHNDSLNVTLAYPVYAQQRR
T2 sequence (P42336 whole entry, species assumed): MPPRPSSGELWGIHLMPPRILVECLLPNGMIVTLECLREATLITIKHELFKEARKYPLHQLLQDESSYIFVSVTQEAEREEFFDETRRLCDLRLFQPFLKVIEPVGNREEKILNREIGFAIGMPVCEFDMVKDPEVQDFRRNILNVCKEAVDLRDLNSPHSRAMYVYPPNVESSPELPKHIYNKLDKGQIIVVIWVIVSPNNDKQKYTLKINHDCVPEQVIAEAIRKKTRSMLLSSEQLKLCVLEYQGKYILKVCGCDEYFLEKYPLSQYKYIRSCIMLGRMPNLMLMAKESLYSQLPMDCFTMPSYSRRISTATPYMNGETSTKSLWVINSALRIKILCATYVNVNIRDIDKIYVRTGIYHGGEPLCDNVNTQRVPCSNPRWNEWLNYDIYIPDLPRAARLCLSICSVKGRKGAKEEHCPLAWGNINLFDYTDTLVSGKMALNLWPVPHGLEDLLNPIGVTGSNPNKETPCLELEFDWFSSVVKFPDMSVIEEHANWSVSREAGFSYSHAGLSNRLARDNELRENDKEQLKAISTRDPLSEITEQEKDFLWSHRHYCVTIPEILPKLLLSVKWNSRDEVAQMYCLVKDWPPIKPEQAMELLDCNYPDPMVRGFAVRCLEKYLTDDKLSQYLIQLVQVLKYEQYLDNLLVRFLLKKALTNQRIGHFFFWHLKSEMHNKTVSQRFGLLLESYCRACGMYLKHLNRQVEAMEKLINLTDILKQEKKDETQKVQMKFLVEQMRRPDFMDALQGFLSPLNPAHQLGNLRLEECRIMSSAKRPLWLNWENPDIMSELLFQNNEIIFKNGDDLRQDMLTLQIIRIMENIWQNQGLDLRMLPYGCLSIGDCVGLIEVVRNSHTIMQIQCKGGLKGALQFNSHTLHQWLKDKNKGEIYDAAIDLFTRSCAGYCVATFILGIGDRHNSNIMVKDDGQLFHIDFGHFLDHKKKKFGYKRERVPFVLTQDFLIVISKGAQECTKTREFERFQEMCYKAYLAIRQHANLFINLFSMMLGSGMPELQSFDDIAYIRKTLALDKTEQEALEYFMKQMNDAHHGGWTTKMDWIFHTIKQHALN
T2 sequence (P27986 whole entry partner, species assumed): as the sequence (P27986 whole entry partner) above

IC50 (DNA-PK (h)): 4250 nM
Compound: COc1ccc(C(O)c2cc(-c3cc(C(F)F)nc4cc(N5CCOCC5)ccc34)c(F)cc2Cl)nn1 (single isomer, unassigned) [Embodiment 16]

IC50 (DNA-PK (h)): 5.7 nM
Compound: Cc1nccnc1C(O)c1cc(-c2ccnc3c(F)c(N4CCOCC4)cc(F)c23)c(F)cc1Cl (single isomer, unassigned) [Embodiment 24]

IC50 (DNA-PK (h)): 8.7 nM
Compound: Cc1nccnc1C(O)c1cc(-c2ccnc3c(F)c(N4CCOCC4)cc(F)c23)c(F)cc1Cl (centres unmarked) [Embodiment 23]

IC50 (DNA-PK (h)): 0.8 nM
IC50 (PI3K (p110α/p85α)): 43 nM
IC50 (PI3K (p110σ/p85α)): 47 nM
Tlast ([1]; IV(1 mg/kg)): 8.00 h
Tlast ([1]; PO(2 mg/kg)): 8.00 h
bioavailability ([1]; PO(2 mg/kg)): 50%
AUC(0-t) ([1]; IV(1 mg/kg)): 1.98 µM·h
C0 ([1]; IV(1 mg/kg)): 1380 nM
clearance ([1]; IV(1 mg/kg)): 15.4 mL/min/kg
half-life ([1]; IV(1 mg/kg)): 1.89 h
Vd ([1]; IV(1 mg/kg)): 2.32 L/kg
AUC(0-t) ([1]; PO(2 mg/kg)): 1.98 µM·h
Cmax ([1]; PO(2 mg/kg)): 456 nM
half-life ([1]; PO(2 mg/kg)): 6.25 h
Tmax ([1]; PO(2 mg/kg)): 1 h
Compound: COc1ccc(C(O)c2cc(-c3ccnc4c(F)c(N5CCOCC5)cc(F)c34)c(F)cc2Cl)nn1 (single isomer, unassigned) [Embodiment 22]

IC50 (DNA-PK (h)): 13100 nM
Compound: COc1ccc(C(O)c2cc(-c3cc(OC)nc4cc(N5CCOCC5)ccc34)c(F)cc2Cl)nn1 (single isomer, unassigned) [Embodiment 25]

IC50 (DNA-PK (h)): 33 nM
Compound: Cc1nccnc1C(O)c1cc(-c2cnnc3c(F)c(N4CCOCC4)cc(F)c23)c(F)cc1Cl (single isomer, unassigned) [Embodiment 18]

IC50 (DNA-PK (h)): 15 nM
Compound: Cc1nccnc1C(O)c1cc(-c2cnnc3c(F)c(N4CCOCC4)cc(F)c23)c(F)cc1Cl (centres unmarked) [Embodiment 17]

IC50 (DNA-PK (h)): 76 nM
Compound: COc1ccc(C(O)c2cc(-c3ccnc4c(F)c(N5CCOCC5)cc(F)c34)c(F)cc2Cl)nn1 (single isomer, unassigned) [Embodiment 21]

Further lines, the compound ahead of its results:

Compound: COc1ccc(C(O)c2cc(-c3cnnc4cc(N5CCOCC5)ccc34)c(F)cc2Cl)nn1 (centres unmarked) [Embodiment 3]
IC50 (DNA-PK (h)): 3.5 nM
IC50 (PI3K (p110α/p85α)): 509 nM
IC50 (PI3K (p110σ/p85α)): 132 nM
Tlast ([1]; IV(1 mg/kg)): 8.00 h
Tlast ([1]; PO(2 mg/kg)): 8.00 h
bioavailability ([1]; PO(2 mg/kg)): 48.2%
AUC(0-t) ([1]; IV(1 mg/kg)): 1.85 µM·h
C0 ([1]; IV(1 mg/kg)): 1260 nM
clearance ([1]; IV(1 mg/kg)): 17.9 mL/min/kg
half-life ([1]; IV(1 mg/kg)): 1.27 h
Vd ([1]; IV(1 mg/kg)): 1.42 L/kg
AUC(0-t) ([1]; PO(2 mg/kg)): 1.79 µM·h
Cmax ([1]; PO(2 mg/kg)): 459 nM
half-life ([1]; PO(2 mg/kg)): 2.83 h
Tmax ([1]; PO(2 mg/kg)): 0.5 h

Compound: COc1ccc(C(O)c2cc(-c3cc(C(F)F)nc4cc(N5CCOCC5)ccc34)c(F)cc2Cl)nn1 (single isomer, unassigned) [Embodiment 15]
IC50 (DNA-PK (h)): 71 nM

Compound: COc1ccc(C(O)c2cc(-c3ccnc4c(Cl)c(N5CCOCC5)ccc34)c(F)cc2Cl)nn1 (single isomer, unassigned) [Embodiment 6]
IC50 (DNA-PK (h)): 8 nM

Compound: COc1ccc(C(O)c2cc(-c3cnnc4cc(N5CCOCC5)ccc34)c(F)cc2Cl)nn1 (single isomer, unassigned) [Embodiment 4]
IC50 (DNA-PK (h)): 587 nM

Compound: COc1ccc(C(O)c2cc(-c3cc(N)nc4cc(N5CCOCC5)cc(F)c34)c(F)cc2Cl)nn1 (single isomer, unassigned) [Embodiment 14]
IC50 (DNA-PK (h)): 2.7 nM

Compound: COc1ccc(C(O)c2cc(-c3ccnc4cc(N5CCOCC5)ccc34)c(F)cc2Cl)nn1 (single isomer, unassigned) [Embodiment 1]
IC50 (DNA-PK (h)): 82 nM

Compound: COc1ccc(C(O)c2cc(-c3cc(N)nc4c(F)c(N5CCOCC5)ccc34)c(F)cc2Cl)nn1 (single isomer, unassigned) [Embodiment 9]
IC50 (DNA-PK (h)): 840 nM

Compound: COc1ccc(C(O)c2cc(-c3ccnc4c(Cl)c(N5CCOCC5)ccc34)c(F)cc2Cl)nn1 (single isomer, unassigned) [Embodiment 5]
IC50 (DNA-PK (h)): 307 nM

Compound: COc1ccc(C(O)c2cc(-c3cc(N)nc4cc(N5CCOCC5)ccc34)c(F)cc2Cl)nn1 (centres unmarked) [Embodiment 11]
IC50 (DNA-PK (h)): 4.7 nM

Compound: COc1ccc(C(O)c2cc(-c3cc(N)nc4cc(N5CCOCC5)cc(F)c34)c(F)cc2Cl)nn1 (centres unmarked) [Embodiment 13]
IC50 (DNA-PK (h)): 141 nM

Compound: COc1ccc(C(O)c2cc(-c3cnnc4c(F)c(N5CCOCC5)cc(F)c34)c(F)cc2Cl)nn1 (single isomer, unassigned) [Embodiment 20]
IC50 (DNA-PK (h)): 136 nM

Compound: COc1cc([C@@H]2c3cc4c(cc3[C@@H](O[C@@H]3O[C@@H]5CO[C@@H](C)O[C@H]5[C@H](O)[C@H]3O)[C@H]3COC(=O)[C@H]23)OCO4)cc(OC)c1O [Etoposide, etoposide, reference compound]
RTV (24th day) [2]: 6.09 ± 0.85
T/C (%) (24th day) [2]: 75.6%
TGI (%) (24th day) [2]: 33.4%
Tumor volume (mm^3) (0th day) ([2]; average ± SEM, n = 9): 114 ± 9 mm^3
Tumor volume (mm^3) (24th day) ([2]; average ± SEM, n = 9): 654 + 48 mm^3

Compound: COc1ccc(C(O)c2cc(-c3cc(N)nc4c(F)c(N5CCOCC5)ccc34)c(F)cc2Cl)nn1 (single isomer, unassigned) [Embodiment 10]
IC50 (DNA-PK (h)): 0.5 nM

Compound: COc1ccc(C(O)c2cc(-c3cnnc4c(F)c(N5CCOCC5)ccc34)c(F)cc2Cl)nn1 (centres unmarked) [Embodiment 7]
IC50 (DNA-PK (h)): 1.5 nM

Compound: COc1ccc(C(O)c2cc(-c3cc(N)nc4cc(N5CCOCC5)ccc34)c(F)cc2Cl)nn1 (single isomer, unassigned) [Embodiment 12]
IC50 (DNA-PK (h)): 657 nM

Compound: COc1ccc(C(O)c2cc(-c3cnnc4c(F)c(N5CCOCC5)ccc34)c(F)cc2Cl)nn1 (single isomer, unassigned) [Embodiment 8]
IC50 (DNA-PK (h)): 138 nM

From patent US20220267310A1, “QUINAZOLINE AND CINNOLINE DERIVATIVES AS DNA-PK INHIBITOR” (MEDSHINE DISCOVERY INC., priority 2019, published 2022)
